Results taken from patent US11559057B2, “Insecticidal mixtures of bifenthrin and chlorantraniliprole” (FMC CORPORATION, priority 2019, dated 2023).

Assays:
Assay type in all cases: in vivo
H. armigera 3rd instar = assay: Example 5B ratio study, treated leaf bioassay, mortality and Colby synergy (protocol B)
Protocol: (§1) Ratios of bifenthrin to chlorantraniliprole were evaluated on various crops and target pests as indicated in the protocol disclosed Table 5A below where “Lab.” Refers to laboratory, “No. of Treat.” refers to number of treatments, and Total refers to the total number of insects tested. In each evaluation, foliar application was done, the insecticide action was contact/ingestion and 32 insects were evaluated in each treatment.
(§2) The treatment schedule shown in Table 5B was used where “dose” refers to application rate, “ratio” refers to the ratio of bifenthrin to chlorantraniliprole on an a.i. basis.
(§3) Treatments were applied inside a sprayer chamber simulating a volume of 200 l/ha over soybean plants. After a drying period, treated leaves were removed from the plants and placed inside 16 well trays containing agar solution (2%) covered with filter paper. Two 16 well trays were prepared for each treatment (32 larvae/treatment). One 3rd instar larva from laboratory strains was placed in each well over the treated leaf. Trays were kept under controlled conditions of 25° C., photoperiod of 14:10 hours, and 60% RH. Morality was evaluated after 96 hours. Mortality is defined as dead and moribund larvae.
(§4) Synergy or antagonism was determined using the Colby Equation where: E=X+(100−X)(Y)/100)=X+Y−X*Y/100. X is the observed result for compound A at p grams a.e./ha. Y is the observed result for compound B at q grams a.e./ha. E is the expected result for a mixture of A and B at (p+q) g a.i./ha if there is no synergy or antagonism. If the observed value for the combination of A and B is greater than E (Obs>E) then synergy is indicated. If the observed value for the combination of A and B is less than E (Obs<E) then antagonism is indicated.
Morality on H. armigera was evaluated according to protocol B (refer to Table 5B) using treatment numbers 5.1 to 5.13 (refer to Table 5B).

[1] = system: S. frugiperda laboratory strain (susceptible); assay: Example 5C ratio study, mortality and Colby synergy, laboratory strain (protocol G); conditions: Spodoptera frugiperda, 96 hours
Protocol: as §1, §2, §3, §4
(§5) Morality on S. frugiperda was evaluated according to protocols G and H (refer to Table 5B), but where two S. frugiperda strains were tested: a laboratory strain (susceptible) and a field strain in F3 generation sampled in the 2018/2019 season in Sinop-MT region using treatment numbers 5.1 to 5.10 (refer to Table 5B). The results are reported in Tables 5E (Laboratory Strain) and 5F (Filed Strain).

[2] = system: S. frugiperda field strain; assay: Example 5C ratio study, mortality and Colby synergy, field strain (protocol H)
Protocol: as §1, §2, §3, §4, §5

C. includens 3rd instar = assay: Example 5A ratio study, treated leaf bioassay, mortality and Colby synergy (protocol A); conditions: at 7.5 g a.i./ha
Protocol: as §1, §2
Treatments were applied inside a sprayer chamber simulating a volume of 200 l/ha over soybean plants. After a drying period, treated leaves were removed from the plants and placed inside 16 well trays containing agar solution (2%) covered with filter paper. […] Morality was evaluated after 96 hours. […]
Synergy or antagonism was determined using the Colby Equation where: E=X+(100−X)(Y)/100)=X+Y−X*Y/100. […]
Morality on C. includens was evaluated according to protocol A (refer to Table 5B) using treatment numbers 5.1, 5.3, 5.5 to 5.8 and 5.10 to 5.13 (refer to Table 5B). The results are reported in Table 5C below where mortality is the mean mortality, the E value was calculated by the Colby equation, and the synergy value is determined by dividing the mean mortality (%) by the expected value (E).

[3] = system: E. heros 3rd instar nymphs; assay: Example 5D ratio study on soybean plants, mortality and Colby synergy, nymphs (protocol C); conditions: statement for E. heros (nymphs and adults, protocols C and D)
Protocol: as §1, §2, §4
(§6) Morality on E. heros was evaluated according to protocols C and D (refer to Table 5B). […] Mortality was evaluated after 72 hours. […]

[4] = system: D. melachantus 3rd instar nymphs; assay: Example 5E ratio study, mortality and Colby synergy, nymphs (protocol E); conditions: statement for D. melacanthus (nymphs and adults, protocols E and F)
Protocol: as §1, §2, §4, §6
Morality on D. melachantus was evaluated according to protocols E and F (refer to Table 5B). […]

Cc1c(COC(=O)[C@@H]2[C@H](/C=C(\Cl)C(F)(F)F)C2(C)C)cccc1-c1ccccc1 (racemic) [Bifenthrin, 2-methylbiphenyl-3-ylmethyl (Z)-(1RS)-cis-3-(2-chloro-3,3,3-trifluoroprop-1-enyl)-2,2-dimethyl cyclopropanecarboxylate]
mortality at 10 g/ha (H. armigera 3rd instar; Helicoverpa armigera, Bifenthrin 10 g a.i./ha, 96 hours): 0% | mortality at 15 g/ha (H. armigera 3rd instar; Helicoverpa armigera, Bifenthrin 15 g a.i./ha, 96 hours): 0% | mortality at 30 g/ha (H. armigera 3rd instar; Helicoverpa armigera, Bifenthrin 30 g a.i./ha, 96 hours): 0% | mortality at 45 g/ha (H. armigera 3rd instar; Helicoverpa armigera, Bifenthrin 45 g a.i./ha, 96 hours): 0% | mortality at 60 g/ha (H. armigera 3rd instar; Helicoverpa armigera, Bifenthrin 60 g a.i./ha, 96 hours): 9.4% | control of H. armigera (H. armigera 3rd instar; even at a higher dose of 60 g a.i./ha, H. armigera resistance to pyrethroids): lower control | mortality at 10 g/ha ([1]; Bifenthrin 10 g a.i./ha): 34.4% | mortality at 15 g/ha ([1]; Bifenthrin 15 g a.i./ha): 53.1% | mortality at 30 g/ha ([1]; Bifenthrin 30 g a.i./ha): 78.1% | mortality at 45 g/ha ([1]; Bifenthrin 45 g a.i./ha): 96.9% | mortality at 60 g/ha ([1]; Bifenthrin 60 g a.i./ha): 93.8% | mortality at 10 g/ha ([2]; Spodoptera frugiperda, Bifenthrin 10 g a.i./ha, 96 hours): 3.1% | mortality at 15 g/ha ([2]; Spodoptera frugiperda, Bifenthrin 15 g a.i./ha, 96 hours): 3.1% | mortality at 30 g/ha ([2]; Spodoptera frugiperda, Bifenthrin 30 g a.i./ha, 96 hours): 15.6% | mortality at 45 g/ha ([2]; Spodoptera frugiperda, Bifenthrin 45 g a.i./ha, 96 hours): 43.8% | mortality at 60 g/ha ([2]; Spodoptera frugiperda, Bifenthrin 60 g a.i./ha, 96 hours): 43.8% | control of S. frugiperda ([2]; lower doses of bifenthrin, especially on the field strain): lower control

CNC(=O)c1cc(Cl)cc(C)c1NC(=O)c1cc(Br)nn1-c1ncccc1Cl [Chlorantraniliprole, 5-bromo-N-[4-chloro-2-methyl-6-(methylcarbamoyl)phenyl]-2-(3-chloropyridin-2-yl)pyrazole-3-carboxamide]
control of C. includens (C. includens 3rd instar): most effective | mortality at 5 g/ha (H. armigera 3rd instar; Helicoverpa armigera, Chlorantraniliprole 5 g a.i./ha, 96 hours): 84.4% | mortality at 7.5 g/ha (H. armigera 3rd instar; Helicoverpa armigera, Chlorantraniliprole 7.5 g a.i./ha, 96 hours): 100% | H. armigera control (H. armigera 3rd instar; at 7.5 g a.i./ha): most effective | mortality at 5 g/ha ([1]; Chlorantraniliprole 5 g a.i./ha): 96.9% | mortality at 7.5 g/ha ([1]; Chlorantraniliprole 7.5 g a.i./ha): 100% | mortality at 5 g/ha ([2]; Spodoptera frugiperda, Chlorantraniliprole 5 g a.i./ha, 96 hours): 40.6% | mortality at 7.5 g/ha ([2]; Spodoptera frugiperda, Chlorantraniliprole 7.5 g a.i./ha, 96 hours): 59.4% | control of E. heros [3]: did not control | control of D. melacanthus [4]: did not control
